Consider 11 compounds from patent US8026362B2, “Non-nucleoside reverse transcriptase inhibitors” (Roche Palo Alto LLC, priority 2007, dated 2011).

Data set [1] addresses HIV-1 RT (Human immunodeficiency virus type 1 group M subtype B, UniProt P04585). Description: HIV-1 Reverse Transcriptase Assay (RNA-dependent DNA polymerase activity, SPA). The data set is classed as biochemical. The conditions noted are these: 30° C., 30 min, 10% DMSO. As for the experimental part: RNA-dependent DNA polymerase activity was measured using a biotinylated primer oligonucleotide and tritiated dNTP substrate. Newly synthesized DNA was quantified by capturing the biotinylated primer molecules on streptavidin coated Scintillation Proximity Assay (SPA) beads (Amersham). The sequences of the polymerase assay substrate were: 18 nt DNA primer, 5′-Biotin/GTC CCT GTT CGG GCG CCA-3′; 47 nt RNA template, 5′-GGGUCUCUCUGGUUAGACCACUCUAGCAGUGGCGCCCGAACAGGGAC-3′. The biotinylated DNA primer was obtained from the Integrated DNA Technologies Inc. and the RNA template was synthesized by Dharmacon. The DNA polymerase assay (final volume 50 μl) contained 32 nM biotinylated DNA primer, 64 nM RNA substrate, dGTP, dCTP, dTTP (each at 5 μM), 103 nM [^3H]-dATP (specific activity=[…]), in 45 mM Tris-HCl, pH 8.0, 45 mM NaCl, 2.7 mM Mg(CH3COO)2, 0.045% Triton X-100 w/v, 0.9 mM EDTA. The reactions contained 5 ul of serial compound dilutions in 100% DMSO for IC50 determination and the final concentrations of DMSO were 10%. Reactions were initiated by the addition of 30 μl of the HIV-RT enzyme (final concentrations of 1-3 nM). Protein concentrations were adjusted to provide linear product formation for at least 30 min of incubation. After incubation at 30° C. for 30 min, the reaction was quenched by addition of 50 μl of 200 mM EDTA (pH 8.0) and […] SA-PVT SPA beads (Amersham, RPNQ0009, reconstituted in 20 mM Tris-HCl, pH 8.0, 100 mM EDTA and 1% BSA). The beads were left to settle overnight and the SPA signals were counted in a 96-well top counter-NXT (Packard).

Data set [2] has as its system HXB2-strain of HIV in MT4 cells. Description: Antiviral assay: protection of HIV-infected MT4 cells from cell death (MTT). The data set is classed as cell-based. The conditions noted are these: Human immunodeficiency virus 1, 120 h; MT4 cells infected with HXB2-strain of HIV, 5 days, MTT viability. As for the experimental part:
Anti-HIV antiviral activity was assessed using an adaptation of the method of Pauwels et al. {Pauwels et al., J Virol Methods 1988 20:309-321}. The method is based on the ability of compounds to protect HIV-infected T lymphoblastoid cells (MT4 cells) from cell-death mediated by the infection. The endpoint of the assay was calculated as the concentration of compound at which the cell viability of the culture was preserved by 50% (‘50% inhibitory concentration’, IC50). The cell viability of a culture was determined by the uptake of soluble, yellow 3-[4,5-dimethylthiazol-2-yl]-2,5-diphenyltetrazolium bromide (MTT) and its reduction to a purple insoluble formazan salt. After solubilization, spectrophotometric methods were employed to measure the amount of formazan product. […]
A fresh solution of 5 mg/mL MTT was prepared in 0.01 M phosphate buffered saline, pH 7.2 and 20 microliters added to each culture. […] When the formazan deposit was fully solubilized by further mixing, the absorbance (OD) of the cultures was measured at 540 nm and 690 nm wavelength (690 nm readings were used as blanks for artifacts between wells). The percent protection for each treated culture was then calculated from the equation: […]

SMILES strings stand for the structures.

Regarding `Cc1cn(Cc2ccc(Br)c(Oc3cc(Cl)cc(C#N)c3)c2F)c(=O)[nH]c1=O` [Compound I-2, 3-[6-Bromo-2-fluoro-3-(5-methyl-2,4-dioxo-3,4-dihydro-2H-pyrimidin-1-ylmethyl)-phenoxy]-5-chloro-benzonitrile], the melting point (as a rule, the temperature of the solid-liquid transition) fell in the range of 223.1 to 224.2 °C. Moreover, half-maximal inhibition in data set [1] (IC50) required 3.9 nM. In data set [2], the IC50 (in general, the concentration at which inhibition is half-maximal) amounted to 3.1 nM.
`N#Cc1cc(Cl)cc(Oc2c(Br)ccc(Cn3ccc(N)nc3=O)c2F)c1` [Compound I-12, 3-[3-(4-Amino-2-oxo-2H-pyrimidin-1-ylmethyl)-6-bromo-2-fluoro-phenoxy]-5-chloro-benzonitrile] displayed a melting point of 240 to 245 °C. This compound registered an IC50 in data set [1] of 148 nM.
Compound `N#Cc1cc(C#N)cc(Oc2c(Br)ccc(Cn3cc(Cl)c(=O)[nH]c3=O)c2F)c1` [Compound I-9, 5-[6-Bromo-3-(5-chloro-2,4-dioxo-3,4-dihydro-2H-pyrimidin-1-ylmethyl)-2-fluoro-phenoxy]-isophthalonitrile] registered a melting point of 255 to 255.6 °C. Moreover, it took 5.2 nM to reach half-maximal inhibition in data set [1] (IC50).
The matching figures for `N#Cc1cc(Cl)cc(Oc2c(Br)ccc(Cn3cc(F)c(=O)[nH]c3=O)c2F)c1` [Compound I-6, 3-[6-Bromo-2-fluoro-3-(5-fluoro-2,4-dioxo-3,4-dihydro-2H-pyrimidin-1-ylmethyl)-phenoxy]-5-chloro-benzonitrile]: 234 to 236 °C and 2.2 nM.
In the same order, the values of `C[C@@H]1C(=O)NC(=O)N1Cc1ccc(Br)c(Oc2cc(Cl)cc(C#N)c2)c1F` [Compound I-21, 3-[6-Bromo-2-fluoro-3-((R)-5-methyl-2,4-dioxo-imidazolidin-1-ylmethyl)-phenoxy]-5-chloro-benzonitrile] are 119 to 120 °C and 16.9 nM.
The matching figures for `Cc1cc(=O)[nH]c(=O)n1Cc1ccc(Br)c(Oc2cc(Cl)cc(C#N)c2)c1F` [Compound I-16, 3-[6-Bromo-2-fluoro-3-(6-methyl-2,4-dioxo-3,4-dihydro-2H-pyrimidin-1-ylmethyl)-phenoxy]-5-chloro-benzonitrile]: 227 to 228 °C and 26.1 nM.
With `N#Cc1cc(Cl)cc(Oc2c(Br)ccc(Cn3cc(C#N)c(=O)[nH]c3=O)c2F)c1` [Compound I-15, 1-[4-Bromo-3-(3-chloro-5-cyano-phenoxy)-2-fluoro-benzyl]-2,4-dioxo-1,2,3,4-tetrahydro-pyrimidine-5-carbonitrile], the melting point was in the range of 246.9 to 247.8 °C. In data set [1], the midpoint of inhibition, the IC50, lay at 61.2 nM.
`N#Cc1cc(Cl)cc(Oc2c(Br)ccc(CN3CC(=O)NC3=O)c2F)c1` [Compound I-20, 3-[6-Bromo-3-(2,4-dioxo-imidazolidin-1-ylmethyl)-2-fluoro-phenoxy]-5-chloro-benzonitrile] returned a melting point of 131.5 to 132.8 °C. The compound also returned an IC50 in data set [1] of 9 nM. Also, the concentration for half-maximal inhibition (IC50) in data set [2] turned out to be 4.2 nM.
Take `Cc1cn(Cc2ccc(Br)c(Oc3cc(Cl)cc(C#N)c3)c2F)c(=O)nc1N` [Compound I-13, 3-[3-(4-Amino-5-methyl-2-oxo-2H-pyrimidin-1-ylmethyl)-6-bromo-2-fluoro-phenoxy]-5-chloro-benzonitrile]: the melting point was in the range of 262.7 to 263.7 °C. For the same compound, 19.6 nM corresponded to half-maximal inhibition in data set [1] (IC50).
The matching figures for `Cc1cn(Cc2ccc(Br)c(Oc3cc(Cl)cc(C#N)c3)c2F)c(=S)[nH]c1=O` [Compound I-23, 3-[6-Bromo-2-fluoro-3-(5-methyl-4-oxo-2-thioxo-3,4-dihydro-2H-pyrimidin-1-ylmethyl)-phenoxy]-5-chloro-benzonitrile]: 225 to 226 °C and 5.5 nM.
The matching figures for `COc1cn(Cc2ccc(Br)c(Oc3cc(Cl)cc(C#N)c3)c2F)c(=O)[nH]c1=O` [Compound I-19, 3-[6-Bromo-2-fluoro-3-(5-methoxy-2,4-dioxo-3,4-dihydro-2H-pyrimidin-1-ylmethyl)-phenoxy]-5-chloro-benzonitrile]: 190 to 191.1 °C and 2.9 nM.
